Source: patent US20240197760A1, “ACTIVATORS OF INTEGRATED STRESS RESPONSE PATHWAY FOR PROTECTION AGAINST FERROPTOSIS” (Burke Neurological Institute, priority 2021, published 2024)
*1 amine or outer side, *2 acyl side, *3 side chain or, on linkers, in order; H or OH if unused. Where a SMILES comes first, the peptide text is derived from it. Bridges are numbered along the chain shown (N, C = ends). Roman numbers before positions name the chains, in order. [ ]: non-standard residue; d: D form. Actinocin(9to1) = Cc1c2oc3c(C)ccc(C(=O)[*:1])c3nc-2c(C(=O)[*:2])c(N)c1=O; NMeV = CN[C@H](C(=O)O)C(C)C; Sar = CNCC(=O)O

Legend:
[1] = system: Creb1, Bdnf, Rbbp4; experiment: Plasticity gene expression by quantitative real time PCR in mouse primary neurons; assay type: cell-based; settings: for effect on 2-DG led increase in Bdnf gene expression: increasing concentrations co-treated with 2-DG
Protocol: Primary immature neuronal cultures were prepared from cerebral cortex of E14 embryos (day 14 of gestation) of CD1 mice under sterile conditions. Dissected cortices were incubated at 37° C. for 20 min in EBSS solution containing papain, L-cystine and EDTA, which was activated at 37 °C for 30 min and then was filtered through […] (Millipore, catalog number—SCGP00525). Cortices were then mechanically dissociated by trituration with glass pipettes. The rDNase was added in dissociated cells followed by incubation of these dissociated cells at 37 °C for 3 min. Thereafter, these cells were centrifuged at 2800 rpm for 5 min. Then supernatant was discarded, and cell were resuspended gently in a 5 ml mixture of EBSS and 10/10 solution (4:1 ratio). Then 5 ml of 10/10 solution was added gently on top and these resuspended cells were centrifuged at 2800 rpm for 10 min. Supernatant was again discarded and cells were resuspended in 10 ml MEM, Glutamax supplement (Thermo Fisher Scientific, Catalog number—41090036) containing 10% heat inactivated fetal bovine serum (Thermo Fisher Scientific, Catalog number—16140071), 5% heat inactivated horse serum (Thermo Fisher Scientific, Catalog number—26050088), and 1% penicillin/streptomycin (Thermo Fisher Scientific, Catalog number—15140122). Thereafter, resuspended cells were filtered through 70-micron cell strainer (Thomas Scientific, catalog number—4620F02) followed by their counting through Hemocytometer. Cells were, finally, plated at the density of 1 million cells/ml onto poly-D-Lysine (PDL; Sigma Aldrich, catalog number—P6407-10X5MG) coated pates and placed in CO2-buffered incubators at 37° C.
(§1) Total RNA was extracted from primary cortical neurons using NucleoSpin RNA II Kit (Clontech, Catalog number—740955-250). Thereafter, using the Taqman RNA-to-Ct, one step kit (Thermo Fisher Scientific, catalog number—4392938) and following the manufacturer's instructions, […] from each sample was mixed with the Taqman® Gene Expression Master Mix and Taqman® Gene Expression Assays for Creb1 (Catalog number—Mm00501607_m1), Bdnf (Catalog number—Mm04230607_s1), Rbbp4 (Catalog number—Mm00771401_g1), Bip (Catalog number—Mm00517691_m1), Trib3 (Catalog number—Mm00454879_m1), and Chac1 (Catalog number—Mm00509926_m1) with FAM labelled probe and Actin with VIC labelled probe all from Thermo Fisher Scientific on an Applied Biosystems 7500 Fast Real Time PCR System. For assessing gene expression of various specific Bdnf exons in mouse primary neurons, two step qPCR was used. Total RNA from primary cortical neurons was extracted using NucleoSpin RNA II Kit (Clontech, Catalog number—740955-250) and a total of 1.5 μg RNA was used to synthesize cDNA with the SuperScript® III First-Strand Synthesis System (Thermo Fisher Scientific, Catalog number—18080051). Quantitative RT-PCR was then performed using SYBR green (Thermo Fisher Scientific, Catalog number—4309155) on an Applied Biosystems 7500 Fast Real Time PCR System. Quantitative levels for all genes were normalized to the housekeeping gene GAPDH and expressed relative to the relevant control samples as fold change. The sequences of primers used in this part of the study were as follows: Bdnf I forward: […] (SEQ ID NO:9) and Bdnf I reverse: […] (SEQ ID NO:10); Bdnf II forward: […] (SEQ ID NO:11) and Bdnf II reverse: […] (SEQ ID NO:12); Bdnf IV forward #2: […] (SEQ ID NO:13) and Bdnf IV reverse #2: […] (SEQ ID NO:14); Bdnf VI forward: […] (SEQ ID NO:15) and Bdnf VI reverse: […] (SEQ ID NO:16); Bdnf VII forward: […] (SEQ ID NO:17) and Bdnf VII reverse: […] (SEQ ID NO:18) Bdnf IX forward: […] (SEQ ID NO:19) and Bdnf IX reverse: […] (SEQ ID NO:20); Gapdh forward #2: […] (SEQ ID NO:21) and Gapdh reverse #2: […] (SEQ ID NO: 22).

[2] = system: Trib3, Chac1, Bip; experiment: Expression of ATF4 target genes and chaperone Bip in mouse primary neurons; assay type: cell-based; settings: for effect on glucosamine induced expression of Trib3: co-treatment with glucosamine, primary neurons
Protocol: as §1

[3] = system: Trib3 promoter, Bdnf promoter; experiment: Promoter reporter luciferase assay in primary neurons; assay type: cell-based, mouse; settings: 5 μM co-treated with 2-DG 10 mM, 9 h
Protocol: Primary neurons were co-transfected with various plasmids such as different Bdnf exon promoters each tagged with firefly luciferase or Trib3 promoter tagged with firefly luciferase and pTK-renilla luciferase plasmid at 1:10 ratio using Lipofectamine 2000 (Thermo Fisher Scientific, catalog number—11668019) according to the manufacturer's instructions to control for transfection efficiency. […] Thereafter, luciferase activity was measured using dual luciferase assay kit (Promega) and bioluminometer (MDS Analytical Technologies). Final luciferase activity was calculated by normalizing firefly luciferase activity with Renilla luciferase activity and then the valued were converted to fold change with respect to control.

[4] = system: hippocampal slices; experiment: Long term potentiation (fEPSP) in submerged hippocampal slices; parameters: species or system mouse; settings: 1 μg/ml with 2-DG 10 mM, 6 h, hippocampal slices
From the text: Brains were quickly removed from mice sacrificed by cervical dislocation and placed in cold artificial cerebrospinal fluid (ACSF) (bubbled with 95% O2/5% CO2) containing (in mM): 124 NaCl, 4 KCl, 1 Na2HPO4, 25 NaHCO3, 2 CaCl2, 2 MgCl2, and 10 glucose. The pH and osmolarity of the solution were 7.4 and 310 mOsm/L, respectively. The hippocampus was isolated and placed on a mechanical tissue chopper to produce transverse hippocampal slices of 400 μm thickness. […] Hippocampal slices were allowed to recover for at least 90 min prior to beginning the experiment. For recordings, glass electrodes were filled with ACSF and positioned in the CA1 stratum radiatum to record fEPSPs evoked by local stimulation (0.1 ms) of Schaffer collateral fibers using a bipolar concentric electrode placed laterally to the recording electrode (˜150 μm). For LTP recordings, the voltage intensity of the stimulation test pulse (square pulse, 100 us duration) for each slice was determined to be the voltage intensity that had generated 30-40% of the maximum slope obtained using input-output relationships. Facilitation was calculated as the ratio of the slopes of the second and first fEPSPs, and plotted as a function of the inter-pulse duration. For LTP, a test pulse was applied every minute. […] Residual potentiation was calculated as the average of the last 15 min of 2 h of recordings.

[5] = system: Bdnf; experiment: Bdnf gene expression in hippocampal slices submerged in ACSF; parameters: species or system mouse; settings: 1 μg/ml with 2-DG 10 mM in ACSF
[6] = 5 μM co-treated with 2-DG 10 mM, 9 h
[7] = 3 μM, 6 h, mouse primary neurons

N[C@H]1C(O)O[C@H](CO)[C@@H](O)[C@@H]1O (stereo partly shown) [glucosamine]
glucosamine induced expression of plasticity genes in combination with actinomycin D ([1]; 6 h, mouse immature primary neurons): transcription dependent
expression of plasticity genes Creb1, Bdnf and Rbbp4 (mRNA) ([1]; increasing concentrations, 6 h, mouse primary neurons): dose dependent increase

O=C[C@@H](O)[C@@H](O)[C@H](O)[C@H](O)CO [D-mannose]
effect on 2-DG led increase in Bdnf gene expression ([1]; 6 h, mouse primary neurons): decreased 2-DG led increase in Bdnf gene expression in a dose dependent manner

Cn1cc(-c2ccc3c(c2)CCN3C(=O)Cc2cccc(C(F)(F)F)c2)c2c(N)ncnc21 [GSK2606414, 7-methyl-5-(1-{[3-(trifluoromethyl)phenyl]acetyl}-2,3-dihydro-1H-indol-5-yl)-7H-pyrrolo[2,3-d]pyrimidin-4-amine]
effect on 2-DG led increase in Bdnf expression (mRNA) [1, 6]: blocked
effect on glucosamine led increase in Bdnf gene expression ([1]; co-treatment with glucosamine, primary neurons): blocked
effect on 2-DG led increase in Trib3 expression (mRNA) [2, 6]: completely blocked
effect on glucosamine induced expression of Trib3 [2]: blocked
effect on glucosamine induced expression of Trib3 ([2]; listed as PERK inhibitor I): completely blocked
effect on 2-DG led increase in Bdnf promoter activity [3]: blocked
effect on 2-DG led increase in Trib3 promoter activity [3]: completely blocked

Cc1c2oc3c(C)ccc(C(=O)N[C@@H]4C(=O)N[C@H](C(C)C)C(=O)N5CCC[C@H]5C(=O)N(C)CC(=O)N(C)[C@@H](C(C)C)C(=O)O[C@@H]4C)c3nc-2c(C(=O)N[C@@H]2C(=O)N[C@H](C(C)C)C(=O)N3CCC[C@H]3C(=O)N(C)CC(=O)N(C)[C@@H](C(C)C)C(=O)O[C@@H]2C)c(N)c1=O [ActD, actinomycin D] (I: T[dV]P[Sar][NMeV] / II: T[dV]P[Sar][NMeV]; ester I:1-I:C, II:1-II:C; linker I:N-II:N via Actinocin(9to1))
effect on 2-DG led increase in plasticity genes Creb1, Bdnf and Rbbp4 ([1]; co-treatment with 2-DG, 6 h, mouse immature primary neurons): completely blocked
effect on 2-DG led induction in LTP [4]: completely blocked
effect on 2-DG led increase in Bdnf gene expression in hippocampal slices [5]: able to block

tunicamycin
expression of plasticity genes Creb1 and Bdnf [1, 7]: increase
gene expression of chaperone Bip [2, 7]: increase

O=C[C@H](O)[C@@H](O)[C@H](O)[C@H](O)CO [D-glucose]
effect on 2-DG led increase in Bdnf gene expression ([1]; 6 h, mouse primary neurons): decreased 2-DG led increase in Bdnf gene expression in a dose dependent manner
